# Assay results from patent US8906826B2, “Herbicidal compositions comprising 4-amino-3-chloro-5-fluoro-6-(4-chloro-2-fluoro-3-methoxyphenyl) pyridine-2-carboxylic acid or a derivative thereof and imidazolinones” (Dow AgroSciences, LLC, priority 2012, dated 2014).
# Experiments:
# [1] = system: DIGSA; test: Postemergence foliar-applied, direct seeded rice weeds (Example I); type: in vivo, Digitaria sanguinalis (L.) Scop.
# Source text: (§1) Seeds or nutlets of the desired test plant species were planted in a soil matrix prepared by mixing a loam or sandy loam soil (e.g., 28.6 percent silt, 18.8 percent clay, and 52.6 percent sand, with a pH of about 5.8 and an organic matter content of about 1.8 percent) and calcareous grit in an 80 to 20 ratio. The soil matrix was contained in plastic pots with a volume of 1 quart and a surface area of 83.6 cm^2. When required to ensure good germination and healthy plants, a fungicide treatment and/or other chemical or physical treatment was applied. The plants were grown for 8-22 days in a greenhouse with an approximate 14 h photoperiod which was maintained at about 29° C. during the day and 26° C. during the night. Nutrients (Peters Excel® 15-5-15 5-Ca 2-Mg and iron chelate) were applied in the irrigation solution as needed and water was added on a regular basis. Supplemental lighting was provided with overhead metal halide 1000-Watt lamps as necessary. The plants were employed for testing when they reached the first through fourth true leaf stage.
# (§2) Treatments consisted of the acid or esters of 4-amino-3-chloro-5-fluoro-6-(4-chloro-2-fluoro-3-methoxy-phenyl)pyridine-2-carboxylic acid (Compound A), each formulated as an SC (suspension concentrate), and various herbicidal components alone and in combination. Forms of compound A were applied on an acid equivalent basis.
# (§3) Other herbicidal components were applied on an acid equivalent basis and include acetolactate synthase (ALS)-inhibiting herbicides (imidazolinone chemical class) imazethapyr ammonium salt formulated as Newpath®, imazamox ammonium salt formulated as Beyond®, imazapic ammonium salt formulated as Plateau®, imazapyr isopropylamine salt formulated as Arsenal®, imazamethabenz-methyl (technical material) and imazaquin isopropylamine salt formulated as Scepter®/Imagine®.
# (§4) Treatment requirements were calculated based upon the rates being tested, the concentration of active ingredient or acid equivalent in the formulation, and a 12 mL application volume at a rate of 187 L/ha.
# (§5) For treatments comprised of formulated compounds, measured amounts of compounds were placed individually in 25 mL glass vials and diluted in a volume of 1.25% (v/v) Agri-Dex® crop oil concentrated to obtain 12× stock solutions. […]
# (§6) For treatments comprised of formulated and technical compounds, weighed amounts of the technical materials were placed individually in 25 mL glass vials and dissolved in a volume of 97:3 v/v acetone/DMSO to obtain 12× stock solutions, and measured amounts of the formulated compounds were placed individually in 25 mL glass vials and diluted in a volume of 1.5% (v/v) crop oil concentrate or water to obtain 12× stock solutions. […]
# [2] = system: ECHCG; test: as above; type: in vivo, Echinochloa crusgalli (L.) Beauv.
# Source text: as §1, §2, §3, §4
# For treatments comprised of formulated compounds, measured amounts of compounds were placed individually in 25 mL glass vials and diluted in a volume of 1.25% (v/v) Agri-Dex® crop oil concentrated to obtain 12× stock solutions. […] Application solutions were prepared by adding an appropriate amount of each stock solution (e.g., 1 mL) and diluted to the appropriate final concentrations with the addition of 10 mL of an aqueous mixture of 1.25% (v/v) crop oil concentrate so that the final spray solutions contained 1.25+/−0.05% (v/v) crop oil concentrate.
# For treatments comprised of technical compounds, weighed amounts can be placed individually in 25 mL glass vials and dissolved in a volume of 97:3 v/v acetone/DMSO to obtain 12× stock solutions. […] Application solutions can be prepared by adding an appropriate amount of each stock solution (e.g., 1 mL) and diluted to the appropriate final concentrations with the addition of 10 mL of an aqueous mixture of 1.5% (v/v) crop oil concentrate so that the final spray solutions contain 1.25% (v/v) crop oil concentrate. When technical materials are used, the concentrated stock solutions can be added to the spray solutions so that the final acetone and DMSO concentrations of the application solutions are 16.2% and 0.5%, respectively.
# as §6
# [3] = system: AVEFA; test: Postemergence foliar-applied, general weed control (Example III); type: in vivo, Avena fatua L.
# Method: Seeds or nutlets of the desired test plant species were planted in Sun Gro Metro-Mix® 360 planting mixture, which typically has a pH of about 6.0 to about 6.8 and an organic matter content of about 30 percent, in plastic pots with a surface area of 84.6 cm^2 and a volume of 560 cubic centimeters (cm^3). When required to ensure good germination and healthy plants, a fungicide treatment and/or other chemical or physical treatment was applied. The plants were grown for 7-31 days (d) in a greenhouse with an approximate 15 hour (h) photoperiod which was maintained at about 23-29° C. during the day and about 22-28° C. during the night. Nutrients (Peters Excel® 15-5-15 5-Ca 2-Mg) and water were added on a regular basis and supplemental lighting was provided with overhead metal halide 1000-Watt lamps as necessary. The plants were employed for testing when they reached the first, second, or third true leaf stage.
# as §4
# Treatments consisted of the acid or esters of 4-amino-3-chloro-5-fluoro-6-(4-chloro-2-fluoro-3-methoxy-phenyl)pyridine-2-carboxylic acid (Compound A), each formulated as an SC, and various herbicidal components alone and in combination. Forms of compound A were applied on an acid equivalent basis. […]
# as §5
# The treated plants and control plants were placed in a greenhouse as described above and watered by sub-irrigation to prevent wash-off of the test compounds. After approximately 3 weeks, the condition of the test plants as compared with that of the untreated plants was determined visually and scored on a scale of 0 to 100 percent where 0 corresponds to no injury or growth inhibition and 100 corresponds to complete kill. […]
structure (smiles),measurement,setting,value
"COc1c(Cl)ccc(-c2nc(C(=O)O)c(Cl)c(N)c2F)c1F [Compound A Acid, 4-amino-3-chloro-6-(4-chloro-2-fluoro-3-methoxyphenyl)-5-fluoropyridine-2-carboxylic acid]",Visual Weed Control (%) - 20 DAA DIGSA Obs,[1]; Compound A Acid 19.3 gae/ha,13%
same,Visual Weed Control (%) - 25 DAA ECHCG Obs,[2]; Compound A Acid 4.38 gae/ha,20%
same,Visual Weed Control (%) - 25 DAA ECHCG Obs,[2]; Compound A Acid 8.75 gae/ha,50%
same,Visual Weed Control (%) - 19 DAA AVEFA Obs,[3]; Compound A Acid 29 gae/ha,10%
"Cc1cnc(C2=NC(C)(C(C)C)C(=O)N2)c(C(=O)O)c1.N (racemic) [Imazapic ammonium, ammonium (±)-2-[4,5-dihydro-4-methyl-4-(1-methylethyl)-5-oxo-1H-imidazol-2-yl]-5-methyl-3-pyridinecarboxylic acid]",Visual Weed Control (%) - 25 DAA ECHCG Obs,[2]; Imazapic ammonium 4.38 gae/ha,20%
same,Visual Weed Control (%) - 25 DAA ECHCG Obs,[2]; Imazapic ammonium 8.75 gae/ha,40%
same,Visual Weed Control (%) - 19 DAA AVEFA Obs,[3]; Imazapic ammonium 35 gae/ha,70%
"CCc1cnc(C2=NC(C)(C(C)C)C(=O)N2)c(C(=O)O)c1.N (racemic) [Imazethapyr ammonium, ammonium (±)-2-[4,5-dihydro-4-methyl-4-(1-methylethyl)-5-oxo-1H-imidazol-2-yl]-5-ethyl-3-pyridinecarboxylate]",Visual Weed Control (%) - 20 DAA DIGSA Obs,[1]; Imazethapyr ammonium 70 gae/ha,80%
same,Visual Weed Control (%) - 19 DAA AVEFA Obs,[3]; Imazethapyr ammonium 70 gae/ha,80%
"COCc1cnc(C2=NC(C)(C(C)C)C(=O)N2)c(C(=O)O)c1.N (racemic) [Imazamox ammonium, ammonium (±)-2-[4,5-dihydro-4-methyl-4-(1-methylethyl)-5-oxo-1H-imidazol-2-yl]-5-(methoxymethyl)-3-pyridinecarboxylate]",Visual Weed Control (%) - 20 DAA DIGSA Obs,[1]; Imazamox ammonium 44.8 gae/ha,60%
same,Visual Weed Control (%) - 25 DAA ECHCG Obs,[2]; Imazamox ammonium 5.6 gae/ha,15%
same,Visual Weed Control (%) - 25 DAA ECHCG Obs,[2]; Imazamox ammonium 11.2 gae/ha,20%
same,Visual Weed Control (%) - 25 DAA ECHCG Obs,[2]; Imazamox ammonium 22.4 gae/ha,60%
